Data: patent US7863271B2, “2-aminobenzoxazole carboxamides as 5HT3 modulators” (Albany Molecular Research, Inc., priority 2006, dated 2011)
pKi: −log10 of the molar value. Structures can show the parent of a compound that is named as a salt.

Each compound was assayed against T1, 5-HT3 (Homo sapiens, UniProt P46098) (assay: Compound affinity for the human 5-HT3 receptor (Assay B), SPA radioligand binding with [9-methyl-3H]BRL-43694). Conditions: not given.
T1 sequence (P46098 24-478): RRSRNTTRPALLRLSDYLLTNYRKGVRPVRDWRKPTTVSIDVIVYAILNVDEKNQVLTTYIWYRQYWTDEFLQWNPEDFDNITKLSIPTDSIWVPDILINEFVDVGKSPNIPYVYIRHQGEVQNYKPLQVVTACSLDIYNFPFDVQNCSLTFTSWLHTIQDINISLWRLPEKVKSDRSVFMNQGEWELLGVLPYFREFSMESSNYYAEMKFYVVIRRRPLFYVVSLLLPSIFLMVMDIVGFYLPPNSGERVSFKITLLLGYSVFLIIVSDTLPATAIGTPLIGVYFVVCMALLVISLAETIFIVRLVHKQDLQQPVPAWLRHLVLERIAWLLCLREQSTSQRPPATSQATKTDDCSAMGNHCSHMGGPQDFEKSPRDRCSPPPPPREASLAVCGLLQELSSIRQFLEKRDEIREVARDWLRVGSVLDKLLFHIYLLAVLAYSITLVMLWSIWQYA
Parameters: purchased Perkin Elmer
In short: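 Ten competitor concentrations in duplicate; specific binding (total minus nonspecific) fitted for IC50, converted to Ki by Cheng-Prusoff.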

`CN1C[C@H]2C[C@H](NC(=O)c3cccc4oc(Nc5ccccc5)nc34)C[C@@H](C1)N2C` [Example 52, Exo-N-(3,9-Dimethyl-3,9-diazabicyclo[3.3.1]nonan-7-yl)-2-(phenylamino)benzoxazole-4-carboxamide Hydrochloride] gave a pKi of 7.56.

Same assay, conditions: Assay B (method B unless otherwise annotated); read-out: 5-HT3 Ki

Going from `C[C@H]1COC[C@H](C)N1c1nc2c(C(=O)NC3CC4COCC(C3)N4C)cccc2o1` (stereo partly drawn) [Example 88, Endo-N-(9-Methyl-3-oxa-9-azabicyclo[3.3.1]nonan-7-yl) 2-((3 S,5S)-3,5-dimethylmorpholino)benzoxazole-4-carboxamide Hydrochloride] to `C[C@@H]1CNC[C@@H](C)N1c1nc2c(C(=O)NC3CC4CCCC(C3)N4C)cccc2o1` (stereo partly drawn) [Example 69, Endo-N-(9-Methyl-9-azabicyclo[3.3.1]nonan-3-yl)-2-((2R,6R)-2,6-dimethylpiperazin-1-yl)benzoxazole-4-carboxamide Hydrochloride], the pKi falls from 7.70 to 7.49 (0.21 log units).

Going from `CN1C2CCCC1CC(NC(=O)c1cccc3oc(N4CCOC[C@@H]4C(C)(C)C)nc13)C2` (stereo partly drawn) [Example 68, Endo-N-(9-Methyl-9-azabicyclo[3.3.1]nonan-3-yl)-2-((S)-3-tert-butylmorpholino)benzoxazole-4-carboxamide Hydrochloride] to `CC[C@@H]1COCCN1c1nc2c(C(=O)NC3CC4CCCC(C3)N4C)cccc2o1` (stereo partly drawn) [Example 151, Endo-N-(9-Methyl-9-azabicyclo[3.3.1]nonan-3-yl)-2-((R)-3-ethylmorpholino)-benzoxazole-4-carboxamide Hydrochloride], the pKi falls from 8.70 to 7.47 (1.23 log units).

Going from `CN1[C@@H]2CCC[C@H]1C[C@@H](NC(=O)c1cccc3oc(N4CCOCC4c4ccccc4)nc13)C2` (mixture of isomers) [Example 19, Endo-N-(9-Methyl-9-azabicyclo[3.3.1]non-3-yl)-2-(3-phenylmorpholino)benzoxazole-4-carboxamide Hydrochloride] to `CN1[C@@H]2CCC[C@H]1C[C@@H](NC(=O)c1cccc3oc(N4CCOCC4)nc13)C2` [Example 9, Endo-N-(9-Methyl-9-azabicyclo[3.3.1]non-3-yl)-2-morpholinobenzoxazole-4-carboxamide Hydrochloride], the pKi falls from 7.77 to 7.38 (0.39 log units).

`C[C@H]1CN(CC(F)(F)F)C[C@H](C)N1c1nc2c(C(=O)NC3CC4CCCC(C3)N4C)cccc2o1` (stereo partly drawn) [Example 137, Endo-N-(9-methyl-9-azabicyclo[3.3.1]nonan-3-yl)-2-((2S,6S)-2,6-dimethyl-4-(2,2,2-trifluoroethyl)piperazin-1-yl)benzoxazole-4-carboxamide Hydrochloride] and `C[C@H]1CN(C)C[C@H](C)N1c1nc2c(C(=O)NC3CC4CCCC(C3)N4C)cccc2o1` (stereo partly drawn) [Example 122, Endo-N-(9-methyl-9-azabicyclo[3.3.1]nonan-3-yl)-2-((2S,6S-2,4,6-trimethylpiperazin-1-yl)benzoxazole-4-carboxamide Hydrochloride] are within 0.2 log units of each other in pKi: 8.74 for the first, 8.64 for the second.

Compared with `CC(C)C[C@H]1CNCCN1c1nc2c(C(=O)NC3CC4CCCC(C3)N4C)cccc2o1` (stereo partly drawn) [Example 77, Endo-N-(9-Methyl-9-azabicyclo[3.3.1]nonan-3-yl)-2-((S)-2-isobutylpiperazine-1-yl)benzoxazole-4-carboxamide Hydrochloride], `CN1C2CCCC1CC(NC(=O)c1cccc3oc(N4CCN[C@H]5CCCC[C@@H]54)nc13)C2` (stereo partly drawn) [Example 126, Endo-N-(9-Methyl-9-azabicyclo[3.3.1]nonan-3-yl)-2-((4aS,8aS)-octahydroquinoxalin-1(2H)-yl)benzoxazole-4-carboxamide Dihydrochloride] is 0.41 log units lower in pKi: 8.19 for the first, 7.78 for the second.

Going from `C[C@H]1CNC[C@H](C)N1c1nc2c(C(=O)NC3CC4CCCC(C3)N4C)cc(Cl)cc2o1` (stereo partly drawn) [Example 114, Endo-N-(9-methyl-9-azabicyclo[3.3.1]nonan-3-yl)-6-chloro-2-((2S,6S)-2,6-dimethylpiperazin-1-yl)benzoxazole-4-carboxamide Hydrochloride] to `CC(=O)N1C[C@H](C)N(c2nc3c(C(=O)NC4CC5CCCC(C4)N5C)cccc3o2)[C@@H](C)C1` (stereo partly drawn) [Example 110, Endo-N-(9-Methyl-9-azabicyclo[3.3.1]nonan-3-yl)-2-((2S,6S)-4-acetyl-2,6-dimethylpiperazin-1-yl)benzoxazole-4-carboxamide Hydrochloride], the pKi rises from 8.18 to 8.66 (0.48 log units).

Compared with `O=C(N[C@@H]1CN2CCC1CC2)c1cccc2oc(Nc3ccccc3)nc12` [Example 6, (S)—N-(quinuclidine-8-yl)-2-(phenylamino) benzoxazole-4-carboxamide Hydrochloride], `CN1[C@@H]2COC[C@H]1C[C@@H](NC(=O)c1cccc3oc(Nc4ccccc4)nc13)C2` [Example 45, Endo-N-(9-Methyl-3-oxa-9-azabicyclo[3.3.1]nonan-7-yl)-2-(phenylamino)benzoxazole-4-carboxamide Hydrochloride] is 0.44 log units lower in pKi: 8.09 for the first, 7.65 for the second. The first binds more tightly here.

`CN1[C@@H]2CCC[C@H]1C[C@@H](NC(=O)c1cccc3oc(N4CCn5c(nnc5C(F)(F)F)C4)nc13)C2` [Example 54, Endo-N-(9-Methyl-9-azabicyclo[3.3.1]nonan-3-yl)-2-(3-(trifluoromethyl)-5,6-dihydro-[1,2,4]triazolo[4,3-a]pyrazin-7(8H)-yl)benzoxazole-4-carboxamide Hydrochloride] and `CN1[C@@H]2CCC[C@H]1C[C@@H](NC(=O)c1cccc3oc(N4CCS(=O)(=O)CC4)nc13)C2` [Example 82, Endo-N-(9-Methyl-9-azabicyclo[3.3.1]nonan-3-yl)-2-(thiomorpholine 1,1-dioxide)benzoxazole-4-carboxamide Hydrochloride] are within 0.2 log units of each other in pKi: 6.93 for the first, 6.88 for the second.

Going from `O=C(N[C@@H]1CN2CCC1CC2)c1cccc2oc(N3CCNCC3)nc12` [Example 22, (S)—N-(quinuclidine-8-yl)-2-(piperazin-1-yl)benzoxazole-4-carboxamide Dihydrochloride] to `Cc1cc(C(=O)NC2CN3CCC2CC3)c2nc(N)oc2c1` [Example 127, (S)—N-(quinulidin-8-yl)-2-amino-6-methylbenzoxazole-4-carboxamide Hydrochloride], the pKi rises from 6.49 to 7.70 (1.21 log units).

Going from `CN1[C@@H]2CCC[C@H]1C[C@@H](NC(=O)c1cccc3oc(Nc4ccncc4)nc13)C2` [Example 27, Endo-N-(9-Methyl-9-azabicyclo[3.3.1]non-3-yl)-2-(pyridine-4-ylamino)benzoxazole-4-carboxamide Dihydrochloride] to `CN1[C@@H]2CCC[C@H]1C[C@@H](NC(=O)c1cccc3oc(NC4CCCCC4)nc13)C2` [Example 70, Endo-N-(9-Methyl-9-azabicyclo[3.3.1]nonan-3-yl)-2-(cyclohexylamino)benzoxazole-4-carboxamide Hydrochloride], the pKi falls from 8.35 to 7.72 (0.63 log units).

First: CN1[C@@H]2CCC[C@H]1C[C@@H](NC(=O)c1cc(F)cc3oc(N)nc13)C2 [Example 121, Endo-2-amino-6-fluoro-N-(9-Methyl-9-azabicyclo[3.3.1]nonan-3-yl)benzoxazole-4-carboxamide Hydrochloride]
Second: C[C@H]1CN(C(=O)C2CCCC2)C[C@H](C)N1c1nc2c(C(=O)NC3CC4CCCC(C3)N4C)cccc2o1 (stereo partly drawn) [Example 133, Endo-N-(9-methyl-9-azabicyclo[3.3.1]nonan-3-yl)-2-((2S,6S-4-(cyclopentanecarbonyl)-2,6-dimethylpiperazin-1-yl)benzoxazole-4-carboxamide Hydrochloride]
The pKi of the first is 0.69 log units lower: 8.05 for the first, 8.74 for the second.
